From article PMC9280334 (Frontiers in Chemistry, 2022) come the findings set out here.

One series deals with T1, AChE (electric eel) (Electrophorus electricus, UniProt O42275).
T1 construct: purchased Sigma-Aldrich
Briefly: biochemical. Format: biochemical. The conditions noted are these: electric eel AChE; mean ± SEM of three experiments. The procedure:
(§1) AChE, BuChE, 5,5'-dithiobis (2-nitrobenzoic acid) (DTNB), acetyl- and butyrylthiocholine iodides were purchased from Sigma-Aldrich. Five different concentrations of the corresponding compounds in ethanol-DMSO (9:1) were prepared. […] After 3 min of incubation, the substrate solution (acetylthiocholine iodide or butyrylthiocholine iodide, 0.05 M) was added and then incubated for at least 1 min at 25°C. […] The inhibition curve was obtained by plotting the percentage of enzyme activity (100% for the reference) versus the logarithm of the tested compound concentration. […]

The target in a further series is T2, BuChE (equine serum) (Equus caballus, UniProt P81908).
T2 construct: purchased Sigma-Aldrich
Briefly: biochemical. The format is biochemical. As to conditions: equine serum BuChE; mean ± SEM of three experiments. The procedure: as §1

The test system of another series is PC12 cells. Briefly: Neuroprotection against H2O2-induced cell death in PC12 cells (MTT). Format: cell-based. The conditions noted are these: H2O2 (150 μM)-induced injury, mean ± SEM. The procedure:
The cell viability was measured using MTT [3-(4,5-dimethylthiazol-2-yl)-2,5-diphenyl tetrazolium bromide] assay ([Datki et al., 2003]). PC12 cells (from the Iranian Biological Resource Center, IBRC) received different treatments, including no treatment (control), 150 μM H2O2 alone, or 150 μM H2O2 in combination with 0.1–50 μM of the tested compound. The cells were seeded at 1 × 10^4 cells/well and incubated at 37 °C under a 5% CO2 atmosphere for 24 h, then treated with the tested compound and incubated for 3 h. Next, the cells were exposed to H2O2 for 2 h again. The MTT solution (20 μl, 5 mg/ml) was next replaced with the medium and incubated for 4 h. 100 μl of DMSO was added to dissolve the formazan precipitate. Absorbance was then measured at 570 nm using a multi-mode plate reader (Biotek, Winooski, VT). Cell viability is expressed as a percentage relative to the untreated control.

The target in the next series is T3, Aβ1-42 (Homo sapiens, UniProt P05067).
T3 construct: Amyloid-β protein 1–42 (Sigma A9810) was dissolved; purchased Sigma A9810
Kind of series: Inhibition of self-induced Aβ1-42 aggregation (ThT assay). Format: biochemical. As to conditions: Aβ1-42 20 μM, compound 100 μM, after 48 h, ThT, mean ± SEM of three experiments. As for the experimental part:
Inhibitory properties of the compounds on self-induced and AChE-induced aggregation of amyloid-β protein 1–42 was determined using a thioflavin T (ThT)-based fluorescence assay with slight modifications ([Levine, 1993]). The ThT excitation/emission was measured at 448 nm/490 nm at 48 h using a SpectraMax® Microplate Reader. Amyloid-β protein 1–42 (Sigma A9810) was dissolved in Phosphate Buffer Saline pH 7.4 (PBS, HyClone Thermo Scientific) containing ammonium hydroxide (1%). Aβ1-42 (50 μM) was incubated for 24 h at 37°C for prefibrillation.
To determine AChE-induced Aβ1-42 aggregation, Aβ1-42 (20 μl) ± human recombinant AChE (0.01 u/ml, Sigma C1682) were added to […] of PBS buffer pH 7.4 including 0.15 M NaCl and 20 μM thioflavin T (ThT). The mixture was incubated at 37°C in the absence and presence of the compounds (100 μM) and the fluorescence intensities were determined. Due to the presence of the tested compounds, inhibition of self- or AChE-induced aggregation percent was determined by the following calculation: [100-((IFi/IFo) × 100)] where IFi and IFo are the fluorescence intensities obtained for Aβ ± AChE in the presence and in the absence of inhibitors.

T1 sequence (O42275 24-633): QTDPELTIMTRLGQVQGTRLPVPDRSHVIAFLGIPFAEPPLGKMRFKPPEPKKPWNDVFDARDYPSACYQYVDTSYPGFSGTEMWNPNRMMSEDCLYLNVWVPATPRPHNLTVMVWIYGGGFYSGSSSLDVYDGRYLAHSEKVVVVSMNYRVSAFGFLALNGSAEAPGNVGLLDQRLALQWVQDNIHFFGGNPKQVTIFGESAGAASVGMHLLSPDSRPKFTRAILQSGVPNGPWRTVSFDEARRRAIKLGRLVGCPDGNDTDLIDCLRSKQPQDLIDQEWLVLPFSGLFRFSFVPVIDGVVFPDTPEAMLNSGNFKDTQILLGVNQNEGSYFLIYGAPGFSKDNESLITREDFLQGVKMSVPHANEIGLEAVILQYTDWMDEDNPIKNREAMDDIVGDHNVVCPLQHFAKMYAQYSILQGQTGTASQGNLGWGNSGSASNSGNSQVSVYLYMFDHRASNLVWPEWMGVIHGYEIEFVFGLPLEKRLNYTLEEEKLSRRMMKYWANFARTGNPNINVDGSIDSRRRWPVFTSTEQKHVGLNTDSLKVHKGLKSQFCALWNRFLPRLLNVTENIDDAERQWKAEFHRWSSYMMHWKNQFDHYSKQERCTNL
T2 sequence (P81908 whole entry): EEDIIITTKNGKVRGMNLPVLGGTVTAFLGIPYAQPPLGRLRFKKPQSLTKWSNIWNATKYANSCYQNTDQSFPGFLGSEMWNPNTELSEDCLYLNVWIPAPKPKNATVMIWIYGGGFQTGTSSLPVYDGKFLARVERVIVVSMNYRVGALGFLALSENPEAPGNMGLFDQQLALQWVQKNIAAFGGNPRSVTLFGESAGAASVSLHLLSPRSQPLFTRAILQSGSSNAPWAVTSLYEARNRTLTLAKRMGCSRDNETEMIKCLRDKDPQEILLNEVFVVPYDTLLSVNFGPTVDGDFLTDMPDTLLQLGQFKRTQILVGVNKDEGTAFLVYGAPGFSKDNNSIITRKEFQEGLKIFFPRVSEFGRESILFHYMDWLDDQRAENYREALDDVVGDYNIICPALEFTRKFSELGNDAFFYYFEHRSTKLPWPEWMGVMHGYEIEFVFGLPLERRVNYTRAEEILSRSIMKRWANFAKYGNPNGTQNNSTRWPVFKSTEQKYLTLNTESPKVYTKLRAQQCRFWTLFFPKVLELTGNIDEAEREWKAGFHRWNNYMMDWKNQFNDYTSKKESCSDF
T3 sequence (P05067 672-713 limits assumed): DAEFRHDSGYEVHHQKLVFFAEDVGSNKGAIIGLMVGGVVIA

For `O=c1oc2ccc([N+](=O)[O-])cc2cc1-c1ccc(OCCCCC[n+]2ccccc2)cc1` [Compound 3o, 1-(5-(4-(6-Nitro-2-oxo-2H-chromen-3-yl)phenoxy)pentyl)pyridinium Bromide], the IC50 stood at 22 ± 4 nM on AChE (electric eel) and 27 ± 2 nM against BuChE (equine serum).
As for `COc1ccc2cc(-c3ccc(OCCCC[n+]4ccccc4)cc3)c(=O)oc2c1` [Compound 3i, 1-(4-(4-(7-Methoxy-2-oxo-2H-chromen-3-yl)phenoxy)butyl)pyridinium Bromide], the IC50 at AChE (electric eel) was determined as 144 ± 9 nM; on BuChE (equine serum), 46 ± 1 nM.
For `O=c1oc2ccccc2cc1-c1ccc(OCCCCC[n+]2ccccc2)cc1` [Compound 3m, 1-(5-(4-(2-Oxo-2H-chromen-3-yl)phenoxy)pentyl)pyridinium Bromide] the same measures were 72 ± 8 nM and 86 ± 10 nM.
For `COc1cccc2cc(-c3ccc(OCCCCC[n+]4ccccc4)cc3)c(=O)oc12` [Compound 3n, 1-(5-(4-(8-Methoxy-2-oxo-2H-chromen-3-yl)phenoxy)pentyl)pyridinium Bromide], in that order: 15 ± 2 nM and 123 ± 24 nM.
For `COc1ccc2oc(=O)c(-c3ccc(OCCCC[n+]4ccccc4)cc3)cc2c1` [Compound 3h, 1-(4-(4-(6-Methoxy-2-oxo-2H-chromen-3-yl)phenoxy)butyl)pyridinium Bromide] the same measures were 1000 ± 37 nM and 106 ± 8 nM.
For the compound `O=c1oc2ccccc2cc1-c1ccc(OCCCC[n+]2ccccc2)cc1.[Br-]` [Compound 3g, 1-(4-(4-(2-Oxo-2H-chromen-3-yl)phenoxy)butyl)pyridinium Bromide], the IC50 at AChE (electric eel) came out at 7 ± 1 nM; against BuChE (equine serum) it was 91 ± 18 nM. Besides, the “PC12 cell viability (% of control)” value in the series on PC12 cells (0.1 μM compound) is recorded as 30.2 ± 1.4 % of control; in the series with PC12 cells (1 μM compound) it was 33.6 ± 1.2 % of control; in the series with PC12 cells (5 μM compound), 36.6 ± 0.9 % of control; with PC12 cells (10 μM compound) it was 45.8 ± 0.3 % of control; with PC12 cells (20 μM compound) it was 48.7 ± 0.9 % of control; in the series with PC12 cells (50 μM compound), 49.9 ± 0.9 % of control.
As to `COc1ccc2oc(=O)c(-c3ccc(OCCC[n+]4ccccc4)cc3)cc2c1.[Br-]` [Compound 3b, 1-(3-(4-(6-Methoxy-2-oxo-2H-chromen-3-yl)phenoxy)propyl)pyridinium Bromide], the IC50 is 4 ± 1 nM against AChE (electric eel) and 68 ± 6 nM on BuChE (equine serum). The “PC12 cell viability (% of control)” value in the series on PC12 cells (0.1 μM compound) is recorded as 31.7 ± 1.4 % of control; in the series on PC12 cells (1 μM compound) it was 37.6 ± 1.1 % of control; in the series with PC12 cells (5 μM compound), 43.3 ± 0.9 % of control; with PC12 cells (10 μM compound) it was 45.4 ± 1.3 % of control; in the series with PC12 cells (20 μM compound) it was 49.6 ± 0.9 % of control; with PC12 cells (50 μM compound), 54.3 ± 1.6 % of control.
For the compound `CCc1ccc(C)[n+](CCCCCOc2ccc(-c3cc4cc(Br)ccc4oc3=O)cc2)c1` [Compound 3q, 1-(5-(4-(6-Bromo-2-oxo-2H-chromen-3-yl)phenoxy)pentyl)-5-ethyl-2-methylpyridin-1-ium Bromide], the IC50 worked out at 19 ± 1.6 nM on AChE (electric eel) and 22 ± 2.3 nM on BuChE (equine serum).
For `O=c1oc2ccc(Br)cc2cc1-c1ccc(OCCCC[n+]2ccccc2)cc1` [Compound 3k, 1-(4-(4-(6-Bromo-2-oxo-2H-chromen-3-yl)phenoxy)butyl)pyridinium Bromide] the same measures were 40 ± 5 nM and 92 ± 9 nM.
Consider `COc1ccc2cc(-c3ccc(OCCC[n+]4ccccc4)cc3)c(=O)oc2c1` [Compound 3c, 1-(3-(4-(7-Methoxy-2-oxo-2H-chromen-3-yl)phenoxy)propyl)pyridinium Bromide], for which the values for the IC50 at AChE (electric eel) and against BuChE (equine serum) were 7 ± 1 nM and 57 ± 10 nM, respectively.
For `COc1cccc2cc(-c3ccc(OCCCC[n+]4ccccc4)cc3)c(=O)oc12` [Compound 3j, 1-(4-(4-(8-Methoxy-2-oxo-2H-chromen-3-yl)phenoxy)butyl)pyridinium Bromide] the same measures were 31 ± 5 nM and 97 ± 19 nM.
For `CN(C)c1cc[n+](CCCOc2ccc(-c3cc4ccccc4oc3=O)cc2)cc1` [Compound 3s, 4-(Dimethylamino)-1-(3-(4-(2-oxo-2H-chromen-3-yl)phenoxy)propyl)pyridin-1-ium Bromide] the same measures were 22 ± 1.9 nM and 34 ± 2.6 nM.
For `O=c1oc2ccc(Br)cc2cc1-c1ccc(OCCCCC[n+]2ccccc2)cc1` [Compound 3p, 1-(5-(4-(6-Bromo-2-oxo-2H-chromen-3-yl)phenoxy)pentyl)pyridinium Bromide], the IC50 on AChE (electric eel) was 3 nM; at BuChE (equine serum), 49 ± 5 nM.
As to `O=c1oc2ccc(Br)cc2cc1-c1ccc(OCCC[n+]2ccccc2)cc1` [Compound 3e, 1-(3-(4-(6-Bromo-2-oxo-2H-chromen-3-yl)phenoxy)propyl)pyridinium Bromide], the IC50 is 15 ± 3 nM against AChE (electric eel) and 33 ± 5 nM against BuChE (equine serum).
As to `O=c1c(O)c(-c2ccc(O)c(O)c2)oc2cc(O)cc(O)c12` [Quercetin, reference compound], the “PC12 cell viability (% of control)” value was 37.7 ± 1.2 % of control in the series with PC12 cells (0.1 μM compound); 44.2 ± 0.7 % of control in the series on PC12 cells (1 μM compound); 50.7 ± 0.1 % of control in the series on PC12 cells (5 μM compound); 55.8 ± 0.3 % of control in the series with PC12 cells (10 μM compound); 59.6 ± 0.8 % of control in the series on PC12 cells (20 μM compound); 61.0 ± 0.8 % of control in the series with PC12 cells (50 μM compound).
On to `COc1cccc2cc(-c3ccc(OCCC[n+]4ccccc4)cc3)c(=O)oc12` [Compound 3d, 1-(3-(4-(8-Methoxy-2-oxo-2H-chromen-3-yl)phenoxy)propyl)pyridinium Bromide], for which the IC50 at AChE (electric eel) worked out at 81 ± 4 nM; against BuChE (equine serum) it was 79 ± 9 nM.
In the case of `O=c1oc2ccc([N+](=O)[O-])cc2cc1-c1ccc(OCCCC[n+]2ccccc2)cc1.[Br-]` [Compound 3l, 1-(4-(4-(6-Nitro-2-oxo-2H-chromen-3-yl)phenoxy)butyl)pyridinium Bromide], the IC50 on AChE (electric eel) came to 3 ± 1 nM; against BuChE (equine serum), 59 ± 11 nM. Further, the “PC12 cell viability (% of control)” value in the series with PC12 cells (0.1 μM compound) is listed as 23.7 ± 0.5 % of control; in the series on PC12 cells (1 μM compound) it was 27.3 ± 1.2 % of control; in the series with PC12 cells (5 μM compound), 33.5 ± 1.2 % of control; in the series on PC12 cells (10 μM compound), 37.8 ± 1.0 % of control; with PC12 cells (20 μM compound), 51.6 ± 1.1 % of control; in the series on PC12 cells (50 μM compound), 55.7 ± 2.0 % of control.
Consider `COc1cc2c(cc1OC)C(=O)C(CC1CCN(Cc3ccccc3)CC1)C2` (stereo not drawn) [Donepezil, reference compound], for which the “Inhibition of self-induced Aβ aggregation” value at Aβ1-42 is reported as 30.8 ± 1.7%.
